A short description of test [1]: Sensory analysis: odour threshold. An excerpt:
(§1) Purpose: to carry out a sensory analysis of (−)-Ambrox and the compounds (II), (III) and (IV) formed in the crude material and in the crystallised material.

Test [2] is described as follows: Sensory analysis: GC-detection threshold and odour description. The following applies: for GC-detection threshold / odour description: sensory analysis; for odour description: in words.
Description: as §1

These results are taken from patent publication US10294211B2, “Process for isolating and purifying ambrox” (Givaudan SA, priority 2015, dated 2019).

Consider `CC1(C)CCC[C@]2(C)[C@H]3CCO[C@]3(C)CC[C@@H]12` [(−)-Ambrox], for which the “Odour Threshold” value in test [1] (sensory analysis) was found to be 0.2 ng/L.
On to `C/C1=C/CCO[C@@]2(C)CCCC(C)(C)[C@@H]2CC1` [Compound (II)], for which the detection threshold in test [1] (as stated in the description) was above 500 ng/L. For the same compound, in test [2], the GC-detection threshold is recorded as above 500 ng. The odour description result in test [2] is given as ““odorless””; in test [2] (listed as II), “weaker odour”; in test [2] (listed as compound of formula (II)), “practically odourless”.
As for `CC1(C)CCC[C@@]2(C)[C@H]1CC[C@@]1(C)OCC[C@@H]21` [Compound (III)], the “odor weaker than (−)-Ambrox” value in test [2] (compared with (−)-Ambrox) was “about 10 fold”. For the same compound, the GC-detection threshold entry in test [2] is recorded as “circa 2 ng”. The results for the odour description result in test [2] (listed as Compound III) and in test [2] (listed as III) were “essentially odorless” and “weaker odour”, respectively. Further, the “GC-threshold relative to (−)-Ambrox” value in test [2] (times higher than (−)-Ambrox) is “about 10 ×”.
`CC1(C)CCC[C@@]2(C)[C@H]1CC[C@]1(C)OCC[C@@H]21` [Compound (IV)]: in test [2], the GC-detection threshold lay in the range of 5 to 10 ng and the odour description result is “weak, IsoE, woody”. The odour description result in test [2] (listed as IV) is on record as “weaker odour”.
